Laboratory results published in patent publication US20090325909A1, “Suppression of HIV replication and prevention and treatment of HIV” (The Johns Hopkins University, priority 2003, published 2009).
Structures can show the parent of a compound that is named as a salt.

What was measured:
[1] = system: SIV/DeltaB670 and SIV/17E-Fr; assay: Incidence and severity of encephalitis in the accelerated SIV/macaque model; assay type: in vivo, pigtailed macaques (Macaca nemestrina); conditions: 4 mg/kg/day oral from 21 days p.i., euthanized at 84 days p.i., n = 5
Excerpt: Primate model for asymptomatic acute SIV infection. To identify events during acute and asymptomatic infection that lead to CNS disease a SIV/macaque model was developed in which the vast majority of infected animals develop CNS disease. […] These findings indicated the presence of mechanisms in the CNS that quell SIV replication and macrophage activation early after infection.
To identify events during acute and asymptomatic infection that lead to CNS disease in a SIV/macaque, a model was needed in which the vast majority of infected animals develop CNS disease. […] Virus replication and macrophage activation markers in the CNS declined in all macaques by 21 days p.i., despite high levee virus replication in the peripheral blood at this time. These findings indicated the presence of mechanisms in the CNS that quell SIV replication and macrophage activation early after infection.
Animals. Twenty-eight pigtailed macaques (Macaca nemestrina) were intravenously inoculated with a virus swarm, SIV/DeltaB670, and a cloned, neurovirulent virus, SIV/17Efr. Samples of brain tissue (basal ganglia and adjacent subcortical white matter) from macaques euthanized at 10 (n=6), 21′ (n=5), 56 (n=5) and 84 (n−=12) days p.i., and from uninfected control macaques (n=3 to 8) were fixed and embedded and […] sections were cut for immunohistochemical analysis of MAPKs. Of the macaques euthanized at 84 days p.i., one had no morphologic signs of encephalitis, two had mild encephalitis, five had moderate encephalitis and four had severe encephalitis based on morphologic criteria.
All macaques were euthanized at 84 days p.i. and their brains examined for pathological lesions typical of SIV encephalitis.

HIVIIIB = assay: HIV replication in primary human PBL, p24 ELISA; assay type: cell-based
Excerpt: (§1) The HIV strains used in these experiments were HIVBaL (for macrophage infection) and HIVIIIB (for lymphocyte infection); the SIV strains were SIV/17E-Fr and SIV/DeltaB670 (both grow well in primary macrophages and lymphocytes.).
(§2) Virus replication was quantified over time by p24 (HIV) or p27 (SIV) ELISA.

HIVBaL = assay: HIV replication in primary human macrophages, p24 ELISA; assay type: cell-based
Excerpt: as §1, §2

[2] = system: SIV/17E-Fr and SIV/DeltaB670; assay: SIV replication in primary macaque PBL, p27 ELISA; assay type: cell-based; conditions: pretreated with minocycline 24 hr prior to infection
Excerpt: as §1, §2

[3] = system: SIV/17E-Fr and SIV/DeltaB670; assay: SIV replication in primary macaque macrophages, p27; assay type: cell-based; conditions: for reduction in SIV p27 levels: SIV/DeltaB670-infected macrophages, 10 days p.i.
Excerpt: as §1, §2
Inhibition of SIV Virus in vitro. […]

[4] = pretreated with minocycline 24 hr prior to infection

CN(C)c1ccc(O)c2c1C[C@H]1C[C@H]3[C@H](N(C)C)C(O)=C(C(N)=O)C(=O)[C@@]3(O)C(O)=C1C2=O [Minocycline, [4S-(4a,4aa,5aa,12aa)-4,7-bis(dimethylamino)-1,4,4a,5,5a,6,11,12a-octahydro-3,10,12,12a-tetrahydroxy-1,11-dioxo-2-naphthacenecarboxamide]monohydrochloride]
Severity of Encephalitis: Mild (number of macaques) [1]: 2 | Severity of Encephalitis: Moderate (number of macaques) [1]: 0 | Severity of Encephalitis: None (number of macaques) [1]: 3 | Severity of Encephalitis: Severe (number of macaques) [1]: 0 | reduction in HIV p24 levels (HIVIIIB; HIV-infected lymphocytes, 40 μg/ml 24 hours prior to infection, 9 days p.i.): 92% | inhibition of HIV replication in PBL (HIVIIIB; [4]): 92% | reduction in HIV p24 levels (HIVBaL; HIV-infected macrophages, 40 μg/ml 24 hours prior to infection, 9 days p.i.): 99% | inhibition of HIV replication in macrophages (HIVBaL; [4]): 99% | inhibition of SIV replication in PBL [2]: 99% | inhibition of virus replication ([3]; SIV/17E-Fr-infected macrophages): 85% | reduction in SIV p27 levels ([3]; 10 μg/ml at the time of infection): 95% | reduction in SIV p27 levels ([3]; 40 μg/ml prior to infection): 98% | inhibition of SIV replication in macrophages [3, 4]: 85%
